Source: ChEMBL document CHEMBL1131454 (J Med Chem, 1998)

What was measured:
Androgen receptor = biological target: T1, Androgen receptor (Homo sapiens, UniProt P10275)
T1 sequence (P10275 whole entry): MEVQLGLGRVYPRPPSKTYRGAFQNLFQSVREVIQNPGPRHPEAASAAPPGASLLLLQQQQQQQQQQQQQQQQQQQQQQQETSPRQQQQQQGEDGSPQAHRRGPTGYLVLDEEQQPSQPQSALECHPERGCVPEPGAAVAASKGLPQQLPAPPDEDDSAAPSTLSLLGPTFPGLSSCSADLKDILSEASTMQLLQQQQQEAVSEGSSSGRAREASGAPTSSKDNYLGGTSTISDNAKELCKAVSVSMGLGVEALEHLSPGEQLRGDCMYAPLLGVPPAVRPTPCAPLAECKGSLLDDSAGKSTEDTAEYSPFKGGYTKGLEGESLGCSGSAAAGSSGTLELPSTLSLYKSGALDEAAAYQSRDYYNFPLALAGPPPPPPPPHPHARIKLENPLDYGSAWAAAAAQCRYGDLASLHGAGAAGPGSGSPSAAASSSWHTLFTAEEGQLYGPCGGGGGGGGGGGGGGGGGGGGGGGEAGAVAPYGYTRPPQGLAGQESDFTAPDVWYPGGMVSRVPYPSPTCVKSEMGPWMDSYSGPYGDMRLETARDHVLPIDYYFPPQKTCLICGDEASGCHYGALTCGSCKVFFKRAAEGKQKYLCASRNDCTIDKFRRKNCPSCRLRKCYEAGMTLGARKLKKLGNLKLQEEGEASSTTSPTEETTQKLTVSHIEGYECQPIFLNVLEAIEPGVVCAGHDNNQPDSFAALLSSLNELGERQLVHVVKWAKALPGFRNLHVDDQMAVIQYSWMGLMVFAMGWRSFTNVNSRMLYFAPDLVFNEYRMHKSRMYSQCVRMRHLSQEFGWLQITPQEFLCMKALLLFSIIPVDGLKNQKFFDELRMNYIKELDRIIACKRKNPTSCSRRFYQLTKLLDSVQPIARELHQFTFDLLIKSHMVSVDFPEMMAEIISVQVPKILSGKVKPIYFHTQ
Description: Antagonistic activity was determined in Human androgen receptor(hAR) of CV-1 cells in cotransfection assay.

Progesterone receptor [1] = biological target: T2, Progesterone receptor (Homo sapiens, UniProt P06401); experiment: Antagonistic activity was determined in Human progesterone receptor(hPR) of CV-1 cells in cotransfection assay.; assay type: functional, cell-based
T2 sequence (P06401 whole entry): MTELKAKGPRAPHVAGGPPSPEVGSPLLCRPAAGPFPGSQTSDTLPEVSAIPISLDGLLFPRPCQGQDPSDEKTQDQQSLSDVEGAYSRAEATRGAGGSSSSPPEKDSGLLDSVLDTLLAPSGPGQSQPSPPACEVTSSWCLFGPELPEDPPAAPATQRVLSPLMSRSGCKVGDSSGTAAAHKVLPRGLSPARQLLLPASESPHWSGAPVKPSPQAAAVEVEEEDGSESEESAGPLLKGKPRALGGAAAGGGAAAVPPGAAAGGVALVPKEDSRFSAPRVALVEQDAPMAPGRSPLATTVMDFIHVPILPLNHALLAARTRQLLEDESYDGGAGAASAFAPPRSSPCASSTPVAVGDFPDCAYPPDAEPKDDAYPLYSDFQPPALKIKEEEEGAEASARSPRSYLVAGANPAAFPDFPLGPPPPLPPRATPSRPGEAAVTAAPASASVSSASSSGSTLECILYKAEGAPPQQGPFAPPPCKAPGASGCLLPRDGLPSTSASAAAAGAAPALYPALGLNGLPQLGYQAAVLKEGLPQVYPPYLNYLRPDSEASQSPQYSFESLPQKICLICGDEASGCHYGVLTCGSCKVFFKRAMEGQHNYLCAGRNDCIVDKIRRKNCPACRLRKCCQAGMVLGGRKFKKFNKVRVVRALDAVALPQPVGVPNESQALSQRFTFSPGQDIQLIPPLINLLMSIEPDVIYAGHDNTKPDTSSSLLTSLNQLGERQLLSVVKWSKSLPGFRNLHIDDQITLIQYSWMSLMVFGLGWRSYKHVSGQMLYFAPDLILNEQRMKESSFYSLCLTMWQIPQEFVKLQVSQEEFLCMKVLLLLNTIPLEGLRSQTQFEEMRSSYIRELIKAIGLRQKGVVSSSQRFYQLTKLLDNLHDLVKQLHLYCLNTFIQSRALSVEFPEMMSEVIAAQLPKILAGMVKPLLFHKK

[2] = biological target: T3, Mineralocorticoid receptor (Homo sapiens, UniProt P08235); experiment: Antagonistic activity was determined in Human mineralocorticoid receptor(hMR) of CV-1 cells in cotransfection assay.; assay type: functional, cell-based
T3 sequence (P08235 whole entry): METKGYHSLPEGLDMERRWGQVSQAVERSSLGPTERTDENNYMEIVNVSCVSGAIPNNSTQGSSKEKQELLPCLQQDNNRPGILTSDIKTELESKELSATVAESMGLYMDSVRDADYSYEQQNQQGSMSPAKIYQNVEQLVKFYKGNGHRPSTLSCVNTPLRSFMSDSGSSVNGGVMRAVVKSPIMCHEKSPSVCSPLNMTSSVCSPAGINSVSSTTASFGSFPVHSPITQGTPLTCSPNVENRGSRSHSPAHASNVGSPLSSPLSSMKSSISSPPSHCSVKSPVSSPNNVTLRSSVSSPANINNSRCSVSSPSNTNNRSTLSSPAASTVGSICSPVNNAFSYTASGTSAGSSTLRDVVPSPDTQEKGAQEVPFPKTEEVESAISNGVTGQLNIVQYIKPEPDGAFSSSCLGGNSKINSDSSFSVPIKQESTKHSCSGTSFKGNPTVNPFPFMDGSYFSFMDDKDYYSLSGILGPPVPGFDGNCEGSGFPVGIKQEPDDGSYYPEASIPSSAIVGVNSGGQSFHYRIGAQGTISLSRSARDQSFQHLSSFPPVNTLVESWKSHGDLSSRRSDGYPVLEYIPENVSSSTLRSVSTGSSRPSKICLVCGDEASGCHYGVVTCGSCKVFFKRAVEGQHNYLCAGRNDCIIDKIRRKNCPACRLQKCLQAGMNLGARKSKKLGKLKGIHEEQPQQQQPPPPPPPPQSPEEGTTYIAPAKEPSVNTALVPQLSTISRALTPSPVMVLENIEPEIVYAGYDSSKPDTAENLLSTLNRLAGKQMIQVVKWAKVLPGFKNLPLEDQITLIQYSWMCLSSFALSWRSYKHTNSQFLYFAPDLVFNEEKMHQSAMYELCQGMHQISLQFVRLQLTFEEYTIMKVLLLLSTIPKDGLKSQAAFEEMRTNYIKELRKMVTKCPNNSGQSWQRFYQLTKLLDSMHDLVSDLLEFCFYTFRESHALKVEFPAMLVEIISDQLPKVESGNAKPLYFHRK

Progesterone receptor [3] = biological target: T2, Progesterone receptor; experiment: Agonistic activity to the human progesterone receptor (hPR)assayed in CV-1 cells in cotransfection assay.; assay type: functional, cell-based

Structure (SMILES)	IC50 (Androgen receptor)	IC50 (Progesterone receptor [1])	IC50 [2]	EC50 (Progesterone receptor [3])
CC1=CC(C)(C)Nc2ccc3c(c21)C(c1ccc(Cl)c(F)c1)Oc1ccccc1-3 (stereo not drawn)	2200 nM	> 10000 nM	1360 nM	17 nM
CC1=CC(C)(C)Nc2ccc3c(c21)C(c1ccc(Cl)cc1)Oc1ccccc1-3 (stereo not drawn)	1550 nM	600 nM	1520 nM	14 nM
CC1=CC(C)(C)Nc2ccc3c(c21)C(c1cccc(Cl)c1)Oc1ccccc1-3 (stereo not drawn)	253 nM	930 nM	748 nM	18 nM
CC1=CC(C)(C)Nc2ccc3c(c21)C(c1cc(C)cc(Br)c1)Oc1ccccc1-3 (stereo not drawn)	1240 nM	1100 nM	> 10000 nM	17 nM
CC1=CC(C)(C)Nc2ccc3c(c21)C(c1ccc(C)cc1)Oc1ccccc1-3 (stereo not drawn)	1240 nM	250 nM	1590 nM	37 nM
CC1=CC(C)(C)Nc2ccc3c(c21)C(c1ccc(C)c(F)c1)Oc1ccccc1-3 (stereo not drawn)	1220 nM	> 10000 nM	1000 nM	16 nM
CC1=CC(C)(C)Nc2ccc3c(c21)C(c1ccc(Cl)c(C)c1)Oc1ccccc1-3 (stereo not drawn)	1430 nM	> 10000 nM	2030 nM	14 nM
CC1=CC(C)(C)Nc2ccc3c(c21)C(c1cc(Cl)cc(Cl)c1)Oc1ccccc1-3 (stereo not drawn)	1090 nM	> 10000 nM	> 10000 nM	50 nM

Next, values leading:

IC50 (Androgen receptor)	IC50 (Progesterone receptor [1])	IC50 [2]	EC50 (Progesterone receptor [3])	Structure (SMILES)
946 nM	720 nM	1060 nM	18 nM	CC1=CC(C)(C)Nc2ccc3c(c21)C(c1ccc(Cl)c(Cl)c1)Oc1ccccc1-3 (stereo not drawn)
401 nM	1140 nM	1070 nM	8 nM	CC1=CC(C)(C)Nc2ccc3c(c21)C(c1cccc(Br)c1)Oc1ccccc1-3 (stereo not drawn)
315 nM	> 10000 nM	2220 nM	13 nM	CC1=CC(C)(C)Nc2ccc3c(c21)C(c1cccc(C(F)(F)F)c1)Oc1ccccc1-3 (stereo not drawn)
481 nM	3140 nM	977 nM	14 nM	CC1=CC(C)(C)Nc2ccc3c(c21)C(c1ccc(Br)cc1)Oc1ccccc1-3 (stereo not drawn)
